The subject of the assay is bacterial population. Description: Microbiocidal activity by the same methods, triethyl citrate alone versus composition. The following applies: 4.5 w/w % in water q.s. to 100 w/w %, without the Peptide. Type of assay: cell-based.

Each structure is given as a SMILES string. Where a name gives a salt, the structure may show the parent alone.

With `CCOC(=O)CC(O)(CC(=O)OCC)C(=O)OCC` [triethyl citrate, triethyl-2-hydroxypropane-1,2,3-tricarboxylate], the “survival of the bacterial population” value is on record as 25%.

For the origin of these results see patent US9511112B2, “Antibacterial composition for topical use” (GENERAL TOPICS S.r.l., priority 2012, dated 2016).
